Source: patent US10597388B2, “Pyridazinone herbicides” (FMC CORPORATION, priority 2014, dated 2020)

Key:
Format in all cases: in vivo
[1] = system: corn (Zea mays); experiment: Test A greenhouse herbicide test, pre- and postemergence; details: Postemergence; for Plant response rating, Corn: 125 g ai/ha; for Corn plant response rating: 500 g ai/ha, 0 to 100 scale, 0 is no effect, 100 is complete control
Procedure, shortened: (§1)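 Seeds in loam–sand blend received a preemergence directed soil spray; plants at 2–10 cm, one- to two-leaf stage, received postemergence sprays. Compounds in a non-phytotoxic solvent with surfactant. After about 10 d in a greenhouse, injury rated visually versus untreated controls on a 0–100 scale (100 = complete control).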

[2] = system: foxtail, giant (giant foxtail, Setaria faberii); experiment: as above
Procedure, shortened: as §1

[3] = system: kochia (Kochia scoparia); experiment: as above
Procedure, shortened: as §1

[4] = system: ragweed (common ragweed, Ambrosia elatior); experiment: as above
Procedure, shortened: as §1

[5] = system: ryegrass, Italian (Italian ryegrass, Lolium multiflorum); experiment: as above
Procedure, shortened: as §1

[6] = system: wheat (Triticum aestivum); experiment: as above; details: Postemergence; for Plant response rating, Wheat: 125 g ai/ha, 0 to 100 scale where 0 is no effect and 100 is complete control; for Wheat plant response rating: 500 g ai/ha, 0 to 100 scale, 0 is no effect, 100 is complete control
Procedure, shortened: as §1

[7] = system: blackgrass (Alopecurus myosuroides); experiment: Test A greenhouse herbicide test, postemergence; details: for Plant response rating, Blackgrass: 125 g ai/ha; for Blackgrass plant response rating: 500 g ai/ha, 0 to 100 scale, 0 is no effect, 100 is complete control
Procedure, shortened: (§2)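 Visual injury score, 0 (no effect) to 100 (complete control), versus untreated controls roughly 10 d after postemergence spray; plants at one- to two-leaf stage, 2 to 10 cm tall, in loam soil and sand, kept in greenhouse.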

[8] = system: galium (catchweed bedstraw, Galium aparine); experiment: Test A greenhouse herbicide test, postemergence; details: for Plant response rating, Galium: 125 g ai/ha; for Galium plant response rating: 500 g ai/ha, 0 to 100 scale, 0 is no effect, 100 is complete control
Procedure, shortened: as §2

[9] = system: galium (catchweed bedstraw, Galium aparine); experiment: Test C greenhouse herbicide test, pre- and postemergence
Procedure, shortened: (§3)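 Visual ratings on a 0 to 100 scale (0 = no effect, 100 = complete control) versus untreated controls, scored 13–15 d after treatment. Soil-applied preemergence to seeded loam/sand; foliar postemergence to 1- to 4-leaf plants (2–18 cm) in peat-vermiculite mix; compounds formulated in solvent plus surfactant.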

[10] = system: ragweed (common ragweed, Ambrosia elatior); experiment: as above
Procedure, shortened: as §3

[11] = system: ryegrass, Italian (Italian ryegrass, Lolium multiflorum); experiment: as above
Procedure, shortened: as §3

[12] = system: soybean (Glycine max); experiment: as above
Procedure, shortened: as §3

[13] = visual rating after approx. 10 d, 0 to 100 scale (0 no effect, 100 complete control)
[14] = Postemergence, 125 g ai/ha, visual rating after approx. 10 d, 0 to 100 scale (0 no effect, 100 complete control)
[15] = Postemergence, 500 g ai/ha, 0 to 100 scale, 0 is no effect, 100 is complete control
[16] = Preemergence, 125 g ai/ha, 0 to 100 scale where 0 is no effect and 100 is complete control
[17] = Preemergence, 500 g ai/ha, 0 to 100 scale, 0 no effect, 100 complete control
[18] = Postemergence, 125 g ai/ha, 0 to 100 scale where 0 is no effect and 100 is complete control
[19] = Postemergence, 31 g ai/ha, 0 to 100 scale (0 no effect, 100 complete control)
[20] = Postemergence, 125 g ai/ha, scale 0 to 100, 0 is no effect, 100 is complete control
[21] = Postemergence, 250 g ai/ha, scale 0 to 100, 0 no effect, 100 complete control, 13 to 15 d
[22] = Preemergence, 31 g ai/ha, scale 0 to 100, 0 is no effect, 100 is complete control
[23] = Preemergence, 62 g ai/ha, scale 0 to 100, 0 is no effect, 100 is complete control
[24] = Preemergence, 125 g ai/ha, scale 0 to 100, 0 is no effect, 100 is complete control
[25] = Preemergence, 250 g ai/ha, scale 0 to 100 (0 no effect, 100 complete control)
[26] = postemergence, 62 g ai/ha, scale 0 to 100, 0 no effect, 100 complete control
[27] = 0 to 100 scale where 0 is no effect and 100 is complete control
[28] = Postemergence, 16 g ai/ha, scale 0 to 100 (0 no effect, 100 complete control)

**Q.** `CCOC(=O)Oc1c(C)nn(C)c(=O)c1-c1c(CC)ccc2ccccc12` [Compound 37] was tested. Which “Plant response rating, Corn” value [1, 13] did it give?
**A.** Its value is 0.

**Q.** What about the “Corn plant response rating” value [1] of the same compound?
**A.** The value was 40.

**Q.** What about the “Plant response rating, Foxtail, Giant” value [2, 14] of the same compound?
**A.** Its value is 80.

**Q.** What about the “Foxtail, Giant plant response rating” value [2, 15] of the same compound?
**A.** Its value is 90.

**Q.** What about the “Foxtail, Giant plant response rating” value [2, 16] of the same compound?
**A.** Its value is 70.

**Q.** What about the “Plant response rating, Foxtail, Giant” value [2, 17] of the same compound?
**A.** The value was 90.

**Q.** And the “Plant response rating, Kochia” value [3, 14]?
**A.** The value was 60.

**Q.** And the “Kochia plant response rating” value [3, 15]?
**A.** Its value is 90.

**Q.** What about the “Kochia plant response rating” value [3, 16] of the same compound?
**A.** Its value is 30.

**Q.** What about the “Plant response rating, Kochia” value [3, 17] of the same compound?
**A.** The value was 80.

**Q.** What about the “Plant response rating, Ragweed” value [4, 14] of the same compound?
**A.** Its value is 90.

**Q.** What about the “Ragweed plant response rating” value [4, 15] of the same compound?
**A.** Its value is 90.

**Q.** And the “Ragweed plant response rating” value [4, 16]?
**A.** Its value is 80.

**Q.** What about the “Plant response rating, Ragweed” value [4, 17] of the same compound?
**A.** Its value is 90.

**Q.** What about the “Plant response rating, Ryegrass, Italian” value [5, 18] of the same compound?
**A.** The value was 90.

**Q.** What about the “Ryegrass, Italian plant response rating” value [5, 15] of the same compound?
**A.** The value was 100.

**Q.** What about the “Ryegrass, Italian plant response rating” value [5, 16] of the same compound?
**A.** Its value is 90.

**Q.** What about the “Plant response rating, Ryegrass, Italian” value [5, 17] of the same compound?
**A.** The value was 100.

**Q.** And the “Plant response rating, Wheat” value [6]?
**A.** Its value is 40.

**Q.** And the “Wheat plant response rating” value [6]?
**A.** The value was 80.

**Q.** What about the “Plant response rating, Blackgrass” value [7, 13] of the same compound?
**A.** The value was 60.

**Q.** What about the “Blackgrass plant response rating” value [7] of the same compound?
**A.** Its value is 100.

**Q.** What about the “Plant response rating, Galium” value [8, 13] of the same compound?
**A.** The value was 100.

**Q.** What about the “Galium plant response rating” value [8] of the same compound?
**A.** The value was 100.

**Q.** What about the “Galium plant response rating” value [9, 19] of the same compound?
**A.** Its value is 90.

**Q.** What about the “Plant response rating, Galium” value [9, 20] of the same compound?
**A.** Its value is 95.

**Q.** What about the “Plant response rating, Galium” value [9, 21] of the same compound?
**A.** The value was 95.

**Q.** And the “Plant response rating, Galium” value [9, 22]?
**A.** Its value is 100.

**Q.** What about the “Plant response rating, Galium” value [9, 23] of the same compound?
**A.** Its value is 90.

**Q.** What about the “Plant response rating, Galium” value [9, 24] of the same compound?
**A.** Its value is 95.

**Q.** What about the “Galium plant response rating” value [9, 25] of the same compound?
**A.** The value was 100.

**Q.** What about the “Galium plant response rating” value [9, 26] of the same compound?
**A.** Its value is 95.

**Q.** And the “Ragweed plant response rating” value [10, 19]?
**A.** The value was 90.

**Q.** What about the “Plant response rating, Ragweed” value [10, 20] of the same compound?
**A.** Its value is 98.

**Q.** And the “Plant response rating, Ragweed” value [10, 21]?
**A.** Its value is 98.

**Q.** And the “Plant response rating, Ragweed” value [10, 22]?
**A.** Its value is 85.

**Q.** And the “Plant response rating, Ragweed” value [10, 23]?
**A.** Its value is 90.

**Q.** And the “Plant response rating, Ragweed” value [10, 24]?
**A.** Its value is 95.

**Q.** And the “Ragweed plant response rating” value [10, 25]?
**A.** The value was 98.

**Q.** And the “Ragweed plant response rating” value [10, 26]?
**A.** The value was 95.

**Q.** And the “Ryegrass, Italian plant response rating” value [11, 19]?
**A.** The value was 80.

**Q.** And the “Plant response rating, Ryegrass, Italian” value [11, 20]?
**A.** The value was 90.

**Q.** What about the “Plant response rating, Ryegrass, Italian” value [11, 21] of the same compound?
**A.** The value was 90.

**Q.** What about the “Plant response rating, Ryegrass, Italian” value [11, 22] of the same compound?
**A.** Its value is 50.

**Q.** What about the “Plant response rating, Ryegrass, Italian” value [11, 23] of the same compound?
**A.** Its value is 85.

**Q.** And the “Plant response rating, Ryegrass, Italian” value [11, 24]?
**A.** The value was 90.

**Q.** And the “Ryegrass, Italian plant response rating” value [11, 25]?
**A.** The value was 95.

**Q.** What about the “Ryegrass, Italian plant response rating” value [11, 26] of the same compound?
**A.** Its value is 85.

**Q.** And the “Soybean plant response rating” value [12, 19]?
**A.** The value was 10.

**Q.** What about the “Plant response rating, Soybean” value [12, 20] of the same compound?
**A.** The value was 15.

**Q.** What about the “Plant response rating, Soybean” value [12, 21] of the same compound?
**A.** The value was 25.

**Q.** What about the “Plant response rating, Soybean” value [12, 22] of the same compound?
**A.** Its value is 0.

**Q.** What about the “Plant response rating, Soybean” value [12, 23] of the same compound?
**A.** Its value is 30.

**Q.** What about the “Plant response rating, Soybean” value [12, 24] of the same compound?
**A.** The value was 20.

**Q.** And the “Soybean plant response rating” value [12, 25]?
**A.** Its value is 65.

**Q.** And the “Soybean plant response rating” value [12, 26]?
**A.** Its value is 5.

**Q.** Which results are given for `COc1ccc2ccccc2c1-c1c(O)c(C)nn(C)c1=O` [Compound 40]?
**A.** Plant response rating, Corn [1, 27]: 0; Corn plant response rating [1]: 10; Plant response rating, Foxtail, Giant [2, 18]: 60; Foxtail, Giant plant response rating [2, 15]: 80; Foxtail, Giant plant response rating [2, 16]: 40; Plant response rating, Foxtail, Giant [2, 17]: 70; Plant response rating, Kochia [3, 18]: 80; Kochia plant response rating [3, 15]: 90; Kochia plant response rating [3, 16]: 50; Plant response rating, Kochia [3, 17]: 80; Plant response rating, Ragweed [4, 18]: 70; Ragweed plant response rating [4, 15]: 90; Ragweed plant response rating [4, 16]: 30; Plant response rating, Ragweed [4, 17]: 80; Plant response rating, Ryegrass, Italian [5, 18]: 90; Ryegrass, Italian plant response rating [5, 15]: 90; Ryegrass, Italian plant response rating [5, 16]: 60; Plant response rating, Ryegrass, Italian [5, 17]: 100; Plant response rating, Wheat [6]: 0; Wheat plant response rating [6]: 50; Plant response rating, Blackgrass [7, 27]: 60; Blackgrass plant response rating [7]: 80; Plant response rating, Galium [8, 27]: 90; Galium plant response rating [8]: 100; Plant response rating, Galium [9, 28]: 30; Galium plant response rating [9, 19]: 80; Plant response rating, Galium [9, 20]: 90; Galium plant response rating [9, 26]: 85; Plant response rating, Ragweed [10, 28]: 25; Ragweed plant response rating [10, 19]: 45; Plant response rating, Ragweed [10, 20]: 85; Ragweed plant response rating [10, 26]: 75; Plant response rating, Ryegrass, Italian [11, 28]: 10; Ryegrass, Italian plant response rating [11, 19]: 50; Plant response rating, Ryegrass, Italian [11, 20]: 80; Ryegrass, Italian plant response rating [11, 26]: 65; Plant response rating, Soybean [12, 28]: 35; Soybean plant response rating [12, 19]: 5; Plant response rating, Soybean [12, 20]: 30; Soybean plant response rating [12, 26]: 60
